Each structure is given as a SMILES string.

Molecule `CCOCc1nc2c(NC(C)=O)nc3ccccc3c2n1CC(C)(C)NS(C)(=O)=O` [Example 1, N-(2-Ethoxymethyl-1-{2-methyl-2-[(methylsulfonyl)amino]propyl}-1H-imidazo[4,5-c]quinolin-4-yl)acetamide] gave a melting point of 75 to 76 °C.
For `CCOCc1nc2c(NC(=O)c3ccccc3)nc3ccccc3c2n1CC(C)(C)NS(C)(=O)=O` [Example 2, N-(2-Ethoxymethyl-1-{2-methyl-2-[(methylsulfonyl)amino]propyl}-1H-imidazo[4,5-c]quinolin-4-yl)benzamide] the value was 80 to 83 °C; for `CCOCc1nc2c(NC(=O)C(C)C)nc3ccccc3c2n1CC(C)(C)NS(C)(=O)=O` [Example 3], 67 to 70 °C; for `CCOCc1nc2c(NC(=O)OCC)nc3ccccc3c2n1CC(C)(C)NS(C)(=O)=O` [Example 5, Ethyl 2-Ethoxymethyl-1-{2-methyl-2-[(methylsulfonyl)amino]propyl}-1H-imidazo[4,5-c]quinolin-4-ylcarbamate], 163 to 165 °C.
On to `CCCOC(=O)Nc1nc2ccccc2c2c1nc(COCC)n2CC(C)(C)NS(C)(=O)=O` [Example 6, Propyl 2-Ethoxymethyl-1-{2-methyl-2-[(methylsulfonyl)amino]propyl}-1H-imidazo[4,5-c]quinolin-4-ylcarbamate], for which the melting point is 177 to 179 °C.
In turn, `CCCCOC(=O)Nc1nc2ccccc2c2c1nc(COCC)n2CC(C)(C)NS(C)(=O)=O` [Example 7, Butyl 2-Ethoxymethyl-1-{2-methyl-2-[(methylsulfonyl)amino]propyl}-1H-imidazo[4,5-c]quinolin-4-ylcarbamate] had a melting point of 125 to 127 °C.

A word on the melting point: it is the temperature, or range, at which the solid turns liquid.

(Values after patent publication US8476292B2, “Amide and carbamate derivatives of N-{2-[4-amino-2-(ethoxymethyl)-1H-imidazo[4,5-c] quinolin-1-Yl]-1,1-dimethylethyl}methanesulfonamide and methods” (3M Innovative Properties Company, priority 2005, dated 2013).)
